Publication PMC11822212, “High-throughput screening identifies Aurora kinase B as a critical therapeutic target for Merkel cell carcinoma” (Nature Communications, 2025)
“And” between values parts separate entries of the source, which are not always exact repeats. Equal values may be shown once. Where a name gives a salt, the structure may show the parent alone. Read-outs that look alike come from different tables or passages of the source.

Legend:
[1] = system: VN-MCC cell lines (MCC13, MCC26, UISO); assay: qHTS cell viability, VN-MCC cell lines as a group (mean AUC, VN.MCC.avg); format: cell-based, human
WAGA cells (VP-MCC) = assay: qHTS cell viability (CellTiter-Glo, 72 h; primary and follow-up small molecule screen); format: cell-based, human
MKL-1 cells (VP-MCC) = assay: as above; format: cell-based, human
[2] = system: VP-MCC cell lines (WAGA, MKL-1, MKL-2); assay: qHTS cell viability, VP-MCC cell lines as a group (mean AUC, VP.MCC.avg); format: cell-based, human
MCC13 cells (VN-MCC) = assay: qHTS cell viability (CellTiter-Glo, 72 h; primary and follow-up small molecule screen); format: cell-based, human
HEK293T cells = assay: qHTS cell viability (CellTiter-Glo, 72 h; primary screen), control cell line; format: cell-based, human
MCC26 cells (VN-MCC) = assay: qHTS cell viability (CellTiter-Glo, 72 h; primary and follow-up small molecule screen); format: cell-based, human
CRL-7250 cells = assay: qHTS cell viability (CellTiter-Glo, 72 h; primary screen), control cell line; format: cell-based
MKL-2 cells (VP-MCC) = assay: qHTS cell viability (CellTiter-Glo, 72 h; primary and follow-up small molecule screen); format: cell-based, human
[3] = system: six MCC cell lines and four control cell lines; assay: qHTS cell viability, all 10 cell lines screened; format: cell-based
HACAT cells = assay: qHTS cell viability (CellTiter-Glo, 72 h; primary screen), control cell line; format: cell-based, human
[4] = system: control cell lines (HACAT, HEK293T, CRL-7250, NIH-3T3); assay: qHTS cell viability, control cell lines as a group (mean AUC, Control.avg); format: cell-based
[5] = system: MCC cell lines (WAGA, MKL-1, MKL-2, MCC13, MCC26, UISO); assay: qHTS cell viability, all six MCC cell lines as a group (mean AUC, MCC.avg); format: cell-based, human
NIH-3T3 cells = assay: qHTS cell viability (CellTiter-Glo, 72 h; primary screen), control cell line; format: cell-based, mouse
UISO cells (VN-MCC) = assay: qHTS cell viability (CellTiter-Glo, 72 h; primary and follow-up small molecule screen); format: cell-based, human
[6] = NPC library, mean AUC of VN-MCC cell lines
[7] = NPC library, therapeutic window: Control avg AUC minus VN-MCC avg AUC
[8] = NPC library, qHTS dose-response AUC, WAGA
[9] = NPC library, qHTS dose-response AUC, MKL1
[10] = NPC library, mean AUC of VP-MCC cell lines
[11] = NPC library, therapeutic window: Control avg AUC minus VP-MCC avg AUC
[12] = NPC library, qHTS dose-response AUC, MCC13
[13] = NPC library, qHTS dose-response AUC, HEK293T control
[14] = NPC library, qHTS dose-response AUC, MCC26
[15] = NPC library, qHTS dose-response AUC, CRL7250 control
[16] = NPC library, qHTS dose-response AUC, MKL2
[17] = NPC library, therapeutic window: Control avg AUC minus MCC avg AUC
[18] = NPC library, qHTS dose-response AUC, HACAT control
[19] = NPC library, mean AUC of control cell lines
[20] = NPC library, mean AUC of six MCC cell lines
[21] = NPC library, qHTS dose-response AUC, NIH3T3 control
[22] = NPC library, qHTS dose-response AUC, UISO

SMILES | VN-MCC_Avg_AUC [1, 6] | Control-VN-MCC [1, 7] | WAGA_AUC (WAGA cells (VP-MCC); [8]) | MKL1_AUC (MKL-1 cells (VP-MCC); [9]) | VP-MCC_Avg_AUC [2, 10] | Control-VP-MCC [2, 11] | MCC13_AUC (MCC13 cells (VN-MCC); [12]) | HEK293T_AUC (HEK293T cells; [13]) | MCC26_AUC (MCC26 cells (VN-MCC); [14]) | CRL7250_AUC (CRL-7250 cells; [15]) | MKL2_AUC (MKL-2 cells (VP-MCC); [16]) | Control-MCC [3, 17] | HACAT_AUC (HACAT cells; [18]) | Control_Avg_AUC [4, 19] | MCC_Avg_AUC [5, 20] | NIH3T3_AUC (NIH-3T3 cells; [21]) | UISO_AUC (UISO cells (VN-MCC); [22]) | further results
CCOc1ccc2nc(S(N)(=O)=O)sc2c1 [Ethoxzolamide] | 445.807 | 28.8613 | 399.58 | 398.827 | 411.31 | 63.3587 | 463.773 | 465.047 | 444.564 | 486.514 | 435.522 | 46.11 | 484.155 | 474.669 | 428.559 | 462.958 | 429.085 | 
CCCCCCCCCCCCCCCC[N+](C)(C)CC [Ethylhexadecyldimethylammonium bromide] | 431.999 | -72.525 | 248.495 | 275.727 | 253.156 | 106.318 | 452.398 | 340.309 | 497.964 | 362.003 | 235.245 | 16.8967 | 288.244 | 359.474 | 342.577 | 447.34 | 345.634 | Area under the dose-response curve (AUC) WAGA Replicate 1 (WAGA cells (VP-MCC); follow-up screen, WAGA, replicate 1): 383.4; Area under the dose-response curve (AUC) WAGA Replicate 2 (WAGA cells (VP-MCC); follow-up screen, WAGA, replicate 2): 363.0; Area under the dose-response curve (AUC) WAGA Replicate 3 (WAGA cells (VP-MCC); follow-up screen, WAGA, replicate 3): 382.5; Area under the dose-response curve (AUC) MKL-1 Replicate 1 (MKL-1 cells (VP-MCC); follow-up screen, MKL-1, replicate 1): 317.9; Area under the dose-response curve (AUC) MKL-1 Replicate 2 (MKL-1 cells (VP-MCC); follow-up screen, MKL-1, replicate 2): 305.9; Area under the dose-response curve (AUC) MKL-1 Replicate 3 (MKL-1 cells (VP-MCC); follow-up screen, MKL-1, replicate 3): 330.7; Area under the dose-response curve (AUC) MCC13 Replicate 1 (MCC13 cells (VN-MCC); follow-up screen, MCC13, replicate 1): 444.8; Area under the dose-response curve (AUC) MCC13 Replicate 2 (MCC13 cells (VN-MCC); follow-up screen, MCC13, replicate 2): 473.1; Area under the dose-response curve (AUC) MCC13 Replicate 3 (MCC13 cells (VN-MCC); follow-up screen, MCC13, replicate 3): 416.6; Area under the dose-response curve (AUC) MCC26 Replicate 1 (MCC26 cells (VN-MCC); follow-up screen, MCC26, replicate 1): 420.1; Area under the dose-response curve (AUC) MCC26 Replicate 2 (MCC26 cells (VN-MCC); follow-up screen, MCC26, replicate 2): 377.6; Area under the dose-response curve (AUC) MCC26 Replicate 3 (MCC26 cells (VN-MCC); follow-up screen, MCC26, replicate 3): 430.8; Area under the dose-response curve (AUC) MKL-2 Replicate 1 (MKL-2 cells (VP-MCC); follow-up screen, MKL-2, replicate 1): 333.8; Area under the dose-response curve (AUC) MKL-2 Replicate 2 (MKL-2 cells (VP-MCC); follow-up screen, MKL-2, replicate 2): 320.4; Area under the dose-response curve (AUC) MKL-2 Replicate 3 (MKL-2 cells (VP-MCC); follow-up screen, MKL-2, replicate 3): 334.2; Area under the dose-response curve (AUC) UISO Replicate 1 (UISO cells (VN-MCC); follow-up screen, UISO, replicate 1): 324.1; Area under the dose-response curve (AUC) UISO Replicate 2 (UISO cells (VN-MCC); follow-up screen, UISO, replicate 2): 364.3; Area under the dose-response curve (AUC) UISO Replicate 3 (UISO cells (VN-MCC); follow-up screen, UISO, replicate 3): 313.9
Cn1c(=O)c2c(ncn2CCO)n(C)c1=O [Etofylline] | 441.93 | 21.1816 | 399.645 | 387.045 | 374.341 | 88.7707 | 458.423 | 445.08 | 435.802 | 458.019 | 336.333 | 54.9761 | 491.237 | 463.112 | 408.136 | 458.11 | 431.565 | 
CC(Cc1ccccc1)NCCn1cnc2c1c(=O)n(C)c(=O)n2C (centres unmarked) [Fenethylline hydrochloride] |  |  |  |  |  |  |  |  |  |  |  |  |  |  |  |  |  | Control-VN-MCC [1]: 53.8023; VN-MCC_Avg_AUC [1]: 432.93 and 432.931; WAGA_AUC (WAGA cells (VP-MCC)): 435.275; MKL1_AUC (MKL-1 cells (VP-MCC)): 406.458; Control-VP-MCC [2]: 60.9825; VP-MCC_Avg_AUC [2]: 425.75; MCC13_AUC (MCC13 cells (VN-MCC)): 447.432; HEK293T_AUC (HEK293T cells): 471.885; MCC26_AUC (MCC26 cells (VN-MCC)): 413.898; CRL7250_AUC (CRL-7250 cells): 496.56; MKL2_AUC (MKL-2 cells (VP-MCC)): 435.518; Control-MCC [3]: 57.3924; HACAT_AUC (HACAT cells): 497.83; Control_Avg_AUC [4]: 486.733; MCC_Avg_AUC [5]: 429.34; NIH3T3_AUC (NIH-3T3 cells): 480.657; UISO_AUC (UISO cells (VN-MCC)): 437.462
